Data on 9 compounds can be found in patent US8309546B2, “Morpholinopurine derivatives” (Daiichi Sankyo Company, Limited, priority 2008, dated 2012).

Assay [1] has as its target T1, human mTOR (His-tagged mTOR (1362C)) (Homo sapiens, UniProt P42345).
T1 construct: the 1362 to 2549 amino acid portion on the C terminus side of human mTOR; His tag (N); made in house
Description: mTOR kinase activity inhibition assay. As to conditions: HTRF, read-out: IC50 against mTOR. It counts as biochemical. Here is the method: The mTOR kinase activity was determined in the presence and absence of a test compound. A substrate peptide is phosphorylated by mTOR kinase activity. A complex of streptavidin-XL665 and anti-phosphorylated S6K (Thr389) antibody-anti-mouse IgG-cryptate binds to this phosphorylated peptide. At this time, irradiation of excitation light induces transfer of fluorescence resonance energy from the excited cryptate to XL665, emitting fluorescence at 665 nm. Utilizing this principle, mTOR kinase activity was detected. When the mTOR inhibitor is present, phosphorylation of a substrate peptide is inhibited, and the biding of the above-mentioned complex to the substrate peptide is inhibited.
A His tag was introduced into the N terminus end of the 1362 to 2549 amino acid portion on the C terminus side of human mTOR, and a cell line was prepared, so that His-tagged mTOR should be constantly expressed in a HEK293 cell. A cell lysate was prepared from this HEK293 cell which constantly expressed His-tagged mTOR (1362C), and a crude product of His-tagged mTOR (1362C) was obtained by a usual method utilizing His tag.
Subsequently, an mTOR enzyme solution was prepared which contained the above-mentioned His-tagged mTOR (1362C) enzyme and 8 μg/ml biotinylated peptide (Biotin-Ahx-[…]-amide [Sigma]), as well as 50 mM HEPES (pH 7.5), 20 mM MnCl2, 1 mg/ml BSA, a suitable amount of protease inhibitor cocktail (Complete EDTA free, Roche Ltd.), 100 ng/ml calyculin A, and 4 μg/ml cantharidin as other components.
The test compound was dissolved in dimethyl sulfoxide (DMSO) and serially diluted with 20 μm ATP solution (50 mM HEPES (pH 7.5), 20 μM ATP) to obtain concentrations required for the assay. 5 μl of this compound solution was added to each well of a 384-well small volume white plate manufactured by Greiner Bio-One Co., Ltd.
5 μl of the mTOR enzyme solution was added to the above-mentioned well containing the test compound and the resulting mixture was left standing for 3 hours room temperature to proceed an enzymatic reaction.
The same procedure was performed using a solution obtained by dissolving DMSO in 20 μM ATP solution as a positive control and a solution obtained by dissolving DMSO in 50 mM HEPES buffer (pH 7.5) as a negative control.
After the enzymatic reaction, 5 μl each of an europium solution (a solution obtained by dissolving anti-mouse IgG-cryptate [SCETI Medical Labo K.K.] and anti-phosphorylation S6K [Thr389] antibody [Cell Signaling Technology Inc.] in 50 mM HEPES [pH 7.5], 100 mM EDTA, and 1.5 mg/ml BSA) and an XL665 solution (a solution obtained by dissolving Streptavidin-XL 665 [SCETI Medical Labo K.K.] in 50 mM HEPES [pH 7.5], 100 mM EDTA, 0.8 M KF, and 1.5 mg/ml BSA) were added in this order and mixed and the resulting mixture was left standing overnight at 4° C. On the following day, the mixture was returned to room temperature and then irradiated with 337-nm excitation light and fluorescence at 620 and 665 nm was measured with RUBYstar (BMG LABTECH JAPAN Ltd.).
mTOR inhibitory activity (%) was calculated using the ratio calculated from the measured values as an indicator of enzyme activity. Here, the ratio was calculated by the following formula (1). Ratio=10,000×fluorescence at 665 nm/fluorescence at 620 nm (1)
mTOR enzyme inhibitory activity (%) was calculated by the following formula (2). mTOR enzyme inhibitory activity (%)=100×[(P−S)/(P−N)] (2) P: Ratio in positive control well N: Ratio in negative control well S: Ratio in well containing the test compound
Furthermore, an optimal curve was created using the concentrations of the serially diluted test compound solutions and mTOR enzyme inhibitory activity (%) at each concentration to obtain the concentration showing 50% inhibition as the IC50 value of mTOR enzyme inhibitory activity.

In assay [2] the test system is human ovary cancer cell strain IGROV1. Description: Cell growth inhibition test (MTT), IGROV1. It counts as cell-based. As to conditions: IGROV-1, 72 h, IGROV1, 3 days culture, read-out: concentration exhibiting anti-cell effect (GI50). The method, then:
(§1) After a cultured cancer cell strain was treated with a test compound for a predetermined period, a cell growth inhibition test was performed by measuring the living cell count by the 3-(4,5-dimethylthiazol-2-yl)-2,5-diphenyltetrazoliumbromide (MTT) method.
(§2) Human endometrial cancer cell strain AN3CA, human ovary cancer cell strain IGROV1, and human colon cancer cell strain HT29 were seeded in a 96-well plate at 5000, 1000, and 5000 cells, respectively, per well. On the following day of seeding, a test compound having a predetermined concentration was added and the culture was continued at 37° C. in 5% CO2 for 3 days. On the final day of culture, an MTT reaction solution was added and the resulting mixture was reacted for 4 hours to form formazan by dehydrogenases contained in living cells. Subsequently, the culture broth was removed, DMSO was added to solubilize formazan, and the amount of produced formazan was determined by measuring absorbance at 540 nm using a microplate reader.
(§3) Since correlations of the amount of produced formazan and the living cell count had been confirmed, the cell growth rate was calculated by the following formula. Cell growth rate (T/C %) after addition of test compound=100×[(B−C)/(A−C)] A: Absorbance of well not containing test compound (final culture day) B: Absorbance of well containing test compound (final culture day) C: Absorbance of well immediately before addition of test compound (following day of cell seeding)
(§4) Furthermore, the cell growth rate at each concentration of serially diluted test compound solutions was obtained, and the concentration of the test compound resulting in a 50% growth rate was obtained as the GI50 value from two concentrations including 50% therebetween and the growth rates were selected.

Assay [3] deals with human colon cancer cell strain HT29. Put plainly: Cell growth inhibition test (MTT), HT29. As to conditions: HT-29, 72 h, HT29, 3 days culture, read-out: concentration exhibiting anti-cell effect (GI50). It counts as cell-based. The method, then: as §1, §2, §3, §4
The target in another assay is PI3Kα (Homo sapiens, UniProt P42336). Description: PI3K kinase activity inhibition assay. The assay is classed as biochemical. Conditions: Kinase-Glo Plus ATP detection, read-out: IC50 against PI3K. Here is the method:
PI3Kα kinase activity was determined in the presence and absence of a test compound. The test compound was dissolved in DMSO and diluted serially with an ATP solution (30 μm ATP, 50 mM HEPES, pH 7.4, 50 mM NaCl, 0.05% CHAPS, 10 mM MgCl2, and 5 mM dithiothreitol [DTT]). First, 7 μl each of the serially diluted test compound solutions was added to each well of a black 384-well plate. Subsequently, 7 μl of a phosphatidylinositol 4,5-bisphosphate (PIP2) solution (45 μm PIP2, 50 mM HEPES, pH 7.4, 50 mM NaCl, 0.05% CHAPS, 10 mM MgCl2, and 5 mM DTT) was added to each well of the 384-well plate. Finally, 7 μl of a solution containing PI3Kα (50 nM PI3Kα, 50 mM HEPES, pH 7.4, 50 mM NaCl, 0.05% CHAPS, 10 mM MgCl2, and 5 mM DTT) was added to each well of the 384-well plate to initiate a reaction. The mixture was reacted at room temperature for 2 hours and then 21 μl of the Kinase-Glo Plusreagent (Promega) was, added to each well of the 384-well plate to terminate the reaction. After the termination of the reaction, the solution was left standing for 15 minutes and then luminescence was measured with ARVO (PerkinElmer Co., Ltd.) to detect ATP remaining in the reaction solution.
The amount of ATP consumed in the reaction was obtained for each well and used as an indicator of PI3Kαkinase activity. The PI3Kα kinase activity in wells not containing the test compound was calculated by the following formula (1). Furthermore, the PI3Kα kinase activity in wells containing the test compound was calculated by the following formula (2). The PI3Kα inhibitory activity (%) of the test compound was calculated by the following formula (3). PI3Kα kinase activity in wells not containing the test compound=B−C (1) PI3Kα kinase activity in wells containing the test compound=B−P (2) PI3Kα inhibitory activity (%) of test compound=100−100×[(B−P)/(B−C)] (3) B: Measured value in wells not containing PI3Kα or the test compound C: Measured value in wells containing PI3Kα and not containing the test compound P: Measured value in wells containing PI3Kα and the test compound
Furthermore, an optimal curve was calculated with Graph Pad Prism 4 using concentrations of the serially diluted test compound solutions and PI3Kα inhibitory activity (%) at each concentration to obtain the concentration showing 50% inhibition as the IC50 value of PI3Kα inhibitory activity.
A general note: In Kinase-Glo more light means more ATP remaining.

The test system of assay [4] is human endometrial cancer cell strain AN3CA. Put plainly: Cell growth inhibition test (MTT), AN3CA. It counts as cell-based. Conditions: AN3-CA, 72 h, 3 days culture, read-out: concentration exhibiting anti-cell effect (GI50). The method, then: as §1, §2, §3, §4

SMILES strings stand for the structures. Where only a bound is given, the exact number is not on record here.

Chain of PI3Kα (P42336 whole entry, species assumed): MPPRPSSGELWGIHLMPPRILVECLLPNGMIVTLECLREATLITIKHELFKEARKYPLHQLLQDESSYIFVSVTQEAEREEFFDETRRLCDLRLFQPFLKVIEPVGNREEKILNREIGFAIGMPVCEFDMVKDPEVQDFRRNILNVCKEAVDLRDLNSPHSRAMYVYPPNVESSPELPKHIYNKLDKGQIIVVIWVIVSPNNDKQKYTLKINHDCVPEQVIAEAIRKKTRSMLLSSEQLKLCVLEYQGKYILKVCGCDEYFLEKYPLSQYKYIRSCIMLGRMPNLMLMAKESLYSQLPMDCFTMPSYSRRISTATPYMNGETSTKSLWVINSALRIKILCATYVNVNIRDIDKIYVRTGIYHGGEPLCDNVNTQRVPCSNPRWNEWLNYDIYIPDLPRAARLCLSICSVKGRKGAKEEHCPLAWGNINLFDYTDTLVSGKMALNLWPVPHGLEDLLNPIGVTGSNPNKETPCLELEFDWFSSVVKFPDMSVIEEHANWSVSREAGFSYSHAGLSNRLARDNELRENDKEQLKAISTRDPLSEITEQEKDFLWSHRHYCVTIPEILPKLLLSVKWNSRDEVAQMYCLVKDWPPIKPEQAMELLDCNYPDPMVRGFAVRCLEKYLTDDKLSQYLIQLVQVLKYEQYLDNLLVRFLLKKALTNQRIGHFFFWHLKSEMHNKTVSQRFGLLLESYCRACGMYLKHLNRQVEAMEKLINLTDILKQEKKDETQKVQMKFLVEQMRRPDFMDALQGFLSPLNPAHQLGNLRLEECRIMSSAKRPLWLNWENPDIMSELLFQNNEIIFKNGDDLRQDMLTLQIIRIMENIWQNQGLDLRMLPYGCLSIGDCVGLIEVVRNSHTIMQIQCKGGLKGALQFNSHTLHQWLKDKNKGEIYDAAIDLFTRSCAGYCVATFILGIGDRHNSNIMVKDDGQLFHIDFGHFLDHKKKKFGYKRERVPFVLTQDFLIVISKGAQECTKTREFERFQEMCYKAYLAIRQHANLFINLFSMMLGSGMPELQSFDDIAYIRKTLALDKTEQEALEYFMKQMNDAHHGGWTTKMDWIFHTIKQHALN
Chain of PI3Kα (P27986 whole entry partner, species assumed): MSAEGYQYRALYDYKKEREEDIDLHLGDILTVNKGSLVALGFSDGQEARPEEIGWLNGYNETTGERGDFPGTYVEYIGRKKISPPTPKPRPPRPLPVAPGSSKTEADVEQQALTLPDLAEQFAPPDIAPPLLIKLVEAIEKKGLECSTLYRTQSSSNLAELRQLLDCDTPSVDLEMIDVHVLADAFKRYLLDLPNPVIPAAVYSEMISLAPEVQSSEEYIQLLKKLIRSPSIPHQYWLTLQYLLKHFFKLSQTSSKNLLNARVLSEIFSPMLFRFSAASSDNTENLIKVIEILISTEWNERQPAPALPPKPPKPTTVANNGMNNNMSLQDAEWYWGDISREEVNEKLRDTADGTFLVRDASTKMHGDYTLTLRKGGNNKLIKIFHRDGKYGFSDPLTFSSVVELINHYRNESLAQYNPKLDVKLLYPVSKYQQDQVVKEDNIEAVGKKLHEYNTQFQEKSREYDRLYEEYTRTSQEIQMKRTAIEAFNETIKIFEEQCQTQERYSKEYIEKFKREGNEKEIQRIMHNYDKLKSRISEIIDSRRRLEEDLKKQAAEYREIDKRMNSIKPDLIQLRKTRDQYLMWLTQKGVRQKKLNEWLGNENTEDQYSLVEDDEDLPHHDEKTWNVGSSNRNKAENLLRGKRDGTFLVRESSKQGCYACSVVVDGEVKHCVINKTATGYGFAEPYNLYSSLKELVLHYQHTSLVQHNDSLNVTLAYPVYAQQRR
T1 sequence (P42345 1362-2549): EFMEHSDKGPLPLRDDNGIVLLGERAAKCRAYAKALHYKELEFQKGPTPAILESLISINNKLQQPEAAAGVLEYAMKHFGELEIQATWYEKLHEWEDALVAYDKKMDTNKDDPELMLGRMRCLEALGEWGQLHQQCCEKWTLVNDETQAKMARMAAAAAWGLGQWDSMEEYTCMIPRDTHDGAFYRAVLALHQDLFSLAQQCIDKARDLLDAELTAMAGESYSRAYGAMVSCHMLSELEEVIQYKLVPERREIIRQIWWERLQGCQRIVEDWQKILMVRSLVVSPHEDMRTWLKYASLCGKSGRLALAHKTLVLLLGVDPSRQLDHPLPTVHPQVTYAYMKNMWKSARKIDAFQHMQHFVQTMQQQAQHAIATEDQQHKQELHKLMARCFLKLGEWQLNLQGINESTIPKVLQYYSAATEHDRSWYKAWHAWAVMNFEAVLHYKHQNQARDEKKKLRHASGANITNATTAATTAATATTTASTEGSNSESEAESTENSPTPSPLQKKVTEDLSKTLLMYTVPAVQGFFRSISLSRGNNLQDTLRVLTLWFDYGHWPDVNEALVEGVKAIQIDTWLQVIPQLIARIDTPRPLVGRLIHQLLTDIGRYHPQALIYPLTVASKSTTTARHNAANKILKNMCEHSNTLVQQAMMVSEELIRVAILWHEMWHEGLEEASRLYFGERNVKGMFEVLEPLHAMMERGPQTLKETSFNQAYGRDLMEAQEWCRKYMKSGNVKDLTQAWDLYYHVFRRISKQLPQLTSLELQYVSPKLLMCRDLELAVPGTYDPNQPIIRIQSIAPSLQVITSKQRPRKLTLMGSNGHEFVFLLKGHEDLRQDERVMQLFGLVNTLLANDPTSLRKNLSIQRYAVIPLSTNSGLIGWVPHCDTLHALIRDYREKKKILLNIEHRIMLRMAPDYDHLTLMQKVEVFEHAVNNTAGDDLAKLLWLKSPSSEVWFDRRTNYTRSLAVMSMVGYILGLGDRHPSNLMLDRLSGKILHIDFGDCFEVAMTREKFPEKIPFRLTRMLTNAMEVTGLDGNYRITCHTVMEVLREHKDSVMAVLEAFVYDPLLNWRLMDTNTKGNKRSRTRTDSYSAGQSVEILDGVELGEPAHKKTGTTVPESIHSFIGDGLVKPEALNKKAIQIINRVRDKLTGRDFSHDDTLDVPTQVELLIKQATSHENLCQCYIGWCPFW

Consider `CNc1ncc(-c2nc(N3CCOCC3)c3nc(N4C[C@@H](C)N[C@@H](C)C4)n(CC4CC4)c3n2)cn1` [Example 16, 5-{9-(Cyclopropylmethyl)-8-(cis-3,5-dimethylpiperazin-1-yl)-6-morpholin-4-yl-9H-purin-2-yl}-N-methylpyrimidin-2-amine], for which the results for the IC50 (in assay [1]; at PI3Kα) were 30 to 100 nM and 20 to 50 nM, respectively. Besides, the GI50 in assay [2], in assay [3] and in assay [4] was not above 5000 nM throughout.
Regarding `C[C@@H]1CN(c2nc3c(N4CCOCC4)nc(-c4cnc(N)nc4)nc3n2CC2CCOC2)C[C@H](C)N1` (stereo partly drawn) [Example 17, 5-[8-(cis-3,5-Dimethylpiperazin-1-yl)-6-morpholin-4-yl-9-(tetrahydrofuran-3-ylmethyl)-9H-purin-2-yl]pyrimidin-2-amine], the results for the IC50 (in assay [1]; on PI3Kα) were 100 to 500 nM and 20 to 50 nM, respectively. The GI50 in assay [2], in assay [3] and in assay [4] was not above 5000 nM throughout.
As for `CNc1ncc(-c2nc(N3CCOCC3)c3nc(N4C[C@@H](C)N[C@@H](C)C4)n(CC4CCOC4)c3n2)cn1` (stereo partly drawn) [Example 18, 5-[8-(cis-3,5-Dimethylpiperazin-1-yl)-6-morpholin-4-yl-9-(tetrahydrofuran-3-ylmethyl)-9H-purin-2-yl]-N-methylpyrimidin-2-amine], the IC50 (usually the concentration needed to halve the response being measured) in assay [1] lay within 100 to 500 nM; at PI3Kα it was 50 to 100 nM. In addition, the GI50 in assay [2], in assay [3] and in assay [4] was not above 5000 nM in each case.
As for `Nc1ncc(-c2nc(N3CCOCC3)c3nc(N4CCNCC4)n(CC4CC4)c3n2)cn1` [Example 19, 5-[9-(Cyclopropylmethyl)-6-morpholin-4-yl-8-piperazin-1-yl-9H-purin-2-yl]pyrimidin-2-amine], the IC50 in assay [1] lay in the range of 30 to 100 nM; at PI3Kα it was 10 to 20 nM. Besides, the GI50 in assay [2], in assay [3] and in assay [4] was not above 5000 nM throughout.
For the compound `Nc1ncc(-c2nc(N3CCOCC3)c3nc(N4CCOCC4)n(CC4CC4)c3n2)cn1` [Example 20, 5-[9-(Cyclopropylmethyl)-6,8-dimorpholin-4-yl-9H-purin-2-yl]pyrimidin-2-amine], the 50% inhibitory concentration (IC50) in assay [1] was 30 to 100 nM; on PI3Kα, 10 to 20 nM. Besides, the GI50 in assay [2], in assay [3] and in assay [4] was not above 5000 nM throughout.
On to `Cc1nc(N)ncc1-c1nc(N2CCOCC2)c2nc(NCCN(C)C)n(CC3CC3)c2n1` [Example 21, N′-[2-(2-Amino-4-methylpyrimidin-5-yl)-9-(cyclopropylmethyl)-6-morpholin-4-yl-9H-purin-8-yl]-N,N-dimethylethane-1,2-diamine], for which the IC50 was not below 500 nM in assay [1] and 10 to 20 nM at PI3Kα. Further, the GI50 in assay [2], in assay [3] and in assay [4] was not above 5000 nM throughout.
Take `Cc1nc(N)ncc1-c1nc(N2CCOCC2)c2nc(NCCN3CCOCC3)n(CC3CC3)c2n1` [Example 22, 2-(2-Amino-4-methylpyrimidin-5-yl)-9-(cyclopropylmethyl)-6-morpholin-4-yl-N-(2-morpholin-4-ylethyl)-9H-purin-8-amine]: the IC50 is not below 500 nM in assay [1] and 10 to 20 nM on PI3Kα. Also, the GI50 in assay [2], in assay [3] and in assay [4] was not above 5000 nM throughout.
On to `Nc1ncc(-c2nc(N3CCOCC3)c3nc(N4CCOCC4)n(CC4CCOC4)c3n2)cn1` (stereo not drawn) [Example 23, 5-[6,8-Dimorpholin-4-yl-9-(tetrahydrofuran-3-ylmethyl)-9H-purin-2-yl]pyrimidin-2-amine], for which the IC50 fell in the range of 30 to 100 nM in assay [1] and 20 to 50 nM on PI3Kα. The GI50 in assay [2], in assay [3] and in assay [4] was not above 5000 nM in each case.
Consider `CNc1ncc(-c2nc(N3CCOCC3)c3nc(N4CCOCC4)n(CC4CCOC4)c3n2)cn1` (stereo not drawn) [Example 24, 5-[6,8-Dimorpholin-4-yl-9-(tetrahydrofuran-3-ylmethyl)-9H-purin-2-yl]-N-methylpyrimidin-2-amine], for which the 50% inhibitory concentration (IC50) in assay [1] was in the range of 100 to 500 nM; at PI3Kα it was 50 to 100 nM. The GI50 in assay [2], in assay [3] and in assay [4] was not above 5000 nM each time.
